# Test results published in patent publication US20080051387A1, “TETRAHYDROPYRIDO[3,4-D]PYRIMIDINES AND RELATED ANALOGUES” (priority 2006, published 2008).
# Target: T1, chimeric human H3 receptor (Homo sapiens, UniProt Q9Y5N1)
# T1 construct: rat Galpha-i2 (Gnai2, rat); made in house; host or cells: Sf9 insect cells (baculovirus); P2 membranes
# Assay: Chimeric human H3 receptor screening GTP binding assay (inhibition of histamine-stimulated GTP-gamma35S binding, Example 8)
# Type: biochemical
# Details: 1 h; assay described in Example 8; symbol "!" in column headed Ki; read-out: Ki ("!": percent inhibition of agonist-induced GTP-gammaS binding to H3)
# Method in brief: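 Compound tested at 4 μM against 1 μM histamine stimulation; 125 pM GTP-gamma35S binding measured by filtration and scintillation after 60 min at room temperature. Membranes from Sf9 cells expressing chimeric human H3 plus G-protein subunits, in Tris pH 7.4/NaCl/MgCl2/GDP buffer; values are % inhibition after nonspecific subtraction.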
# T1 sequence (Q9Y5N1 with tags, fused parts or gaps): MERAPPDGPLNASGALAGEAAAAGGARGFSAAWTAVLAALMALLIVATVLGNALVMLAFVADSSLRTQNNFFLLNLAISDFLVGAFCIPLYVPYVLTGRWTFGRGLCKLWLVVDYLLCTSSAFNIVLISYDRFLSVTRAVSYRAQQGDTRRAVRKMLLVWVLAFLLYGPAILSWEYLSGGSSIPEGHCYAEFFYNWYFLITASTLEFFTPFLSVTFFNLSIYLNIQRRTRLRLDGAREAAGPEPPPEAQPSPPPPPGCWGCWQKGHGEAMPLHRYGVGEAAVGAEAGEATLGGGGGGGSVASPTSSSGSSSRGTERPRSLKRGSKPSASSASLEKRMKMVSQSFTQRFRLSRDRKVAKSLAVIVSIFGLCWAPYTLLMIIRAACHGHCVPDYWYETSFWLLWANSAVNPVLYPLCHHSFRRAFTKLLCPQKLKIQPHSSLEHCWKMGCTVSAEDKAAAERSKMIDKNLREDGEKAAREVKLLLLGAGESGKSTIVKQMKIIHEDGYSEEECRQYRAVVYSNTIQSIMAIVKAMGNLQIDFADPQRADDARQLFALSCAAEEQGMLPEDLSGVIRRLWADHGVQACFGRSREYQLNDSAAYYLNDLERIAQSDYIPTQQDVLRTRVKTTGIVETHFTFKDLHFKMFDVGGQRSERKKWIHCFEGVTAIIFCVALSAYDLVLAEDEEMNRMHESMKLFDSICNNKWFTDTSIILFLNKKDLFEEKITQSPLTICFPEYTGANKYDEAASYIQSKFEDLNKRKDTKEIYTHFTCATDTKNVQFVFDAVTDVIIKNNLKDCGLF
row,Structure (SMILES),inhibition at 4 µM [%]
1,"O=C(c1cccnc1Cl)N1CCc2cnc(N3CCN(C4CCC4)CC3)nc2CC1 [Compound 477, 7-[(2-chloropyridin-3-yl)carbonyl]-2-(4-cyclobutylpiperazin-1-yl)-6,7,8,9-tetrahydro-5H-pyrimido[4,5-d]azepine]",≥ 90
2,"CSc1ccccc1C(=O)N1CCc2cnc(N3CCN(C4CCC4)CC3)nc2CC1 [Compound 408, 2-(4-cyclobutylpiperazin-1-yl)-7-[2-(methylthio)benzoyl]-6,7,8,9-tetrahydro-5H-pyrimido[4,5-d]azepine]",≥ 90
3,"COc1cccc(C(=O)N2CCc3cnc(N4CCN(C5CCC5)CC4)nc3CC2)c1OC [Compound 430, 2-(4-cyclobutylpiperazin-1-yl)-7-(2,3-dimethoxybenzoyl)-6,7,8,9-tetrahydro-5H-pyrimido[4,5-d]azepine]",≥ 90
4,"COc1ccc(C(=O)N2CCc3cnc(N4CCN(C5CCC5)CC4)nc3CC2)c(OC)c1OC [Compound 432, 2-(4-cyclobutylpiperazin-1-yl)-7-(2,3,4-trimethoxybenzoyl)-6,7,8,9-tetrahydro-5H-pyrimido[4,5-d]azepine]",≥ 90
5,"CCc1ccc(C(=O)N2CCc3cnc(N4CCN(C5CCC5)CC4)nc3CC2)s1 [Compound 451, 2-(4-cyclobutylpiperazin-1-yl)-7-[(5-ethyl-2-thienyl)carbonyl]-6,7,8,9-tetrahydro-5H-pyrimido[4,5-d]azepine]",≥ 90
6,"CCn1nc(C)c(Br)c1C(=O)N1CCc2cnc(N3CCN(C4CCC4)CC3)nc2CC1 [Compound 509, 7-[(4-bromo-1-ethyl-3-methyl-1H-pyrazol-5-yl)carbonyl]-2-(4-cyclobutylpiperazin-1-yl)-6,7,8,9-tetrahydro-5H-pyrimido[4,5-d]azepine]",≥ 90
7,"COc1cccc(OC)c1C(=O)N1CCc2cnc(N3CCN(C4CCC4)CC3)nc2CC1 [Compound 424, 2-(4-cyclobutylpiperazin-1-yl)-7-(2,6-dimethoxybenzoyl)-6,7,8,9-tetrahydro-5H-pyrimido[4,5-d]azepine]",≥ 90
8,"COc1ccc(Cl)c(OC)c1C(=O)N1CCc2cnc(N3CCN(C4CCC4)CC3)nc2CC1 [Compound 426, 7-(3-chloro-2,6-dimethoxybenzoyl)-2-(4-cyclobutylpiperazin-1-yl)-6,7,8,9-tetrahydro-5H-pyrimido[4,5-d]azepine]",≥ 90
9,"O=C(c1c(F)cccc1Cl)N1CCc2cnc(N3CCN(C4CCC4)CC3)nc2CC1 [Compound 433, 7-(2-chloro-6-fluorobenzoyl)-2-(4-cyclobutylpiperazin-1-yl)-6,7,8,9-tetrahydro-5H-pyrimido[4,5-d]azepine]",≥ 90
10,"Cc1oc(-c2ccc(Cl)cc2)cc1C(=O)N1CCc2cnc(N3CCN(C4CCC4)CC3)nc2CC1 [Compound 471, 7-[5-(4-chlorophenyl)-2-methyl-3-furoyl]-2-(4-cyclobutylpiperazin-1-yl)-6,7,8,9-tetrahydro-5H-pyrimido[4,5-d]azepine]",≥ 90
11,"Cn1c(C(=O)N2CCc3cnc(N4CCN(C5CCC5)CC4)nc3CC2)cc2ccccc21 [Compound 461, 2-(4-cyclobutylpiperazin-1-yl)-7-[(1-methyl-1H-indol-2-yl)carbonyl]-6,7,8,9-tetrahydro-5H-pyrimido[4,5-d]azepine]",≥ 90
12,"Cc1ccc(C(=O)N2CCc3cnc(N4CCN(C5CCC5)CC4)nc3CC2)cc1Cl [Compound 394, 7-(3-chloro-4-methylbenzoyl)-2-(4-cyclobutylpiperazin-1-yl)-6,7,8,9-tetrahydro-5H-pyrimido[4,5-d]azepine]",≥ 90
13,"Nc1ccc(Cl)cc1C(=O)N1CCc2cnc(N3CCN(C4CCC4)CC3)nc2CC1 [Compound 536, 4-chloro-2-{[2-(4-cyclobutylpiperazin-1-yl)-5,6,8,9-tetrahydro-7H-pyrimido[4,5-d]azepin-7-yl]carbonyl}aniline]",≥ 90

# Same assay, conditions: 1 h; assay of Example 8; symbol "!" in column headed Ki; read-out: percent inhibition of agonist-induced GTP-gammaS binding to H3
row,Structure (SMILES),inhibition at 4 µM [%]
1,"O=C(Cc1ccccc1Br)N1CCc2cnc(N3CCN(C4CCC4)CC3)nc2CC1 [Compound 297, 7-[(2-bromophenyl)acetyl]-2-(4-cyclobutylpiperazin-1-yl)-6,7,8,9-tetrahydro-5H-pyrimido[4,5-d]azepine]",≥ 90
2,"CCCCCCN1CCc2cnc(N3CCN(C4CCC4)CC3)nc2CC1 [Compound 250, 2-(4-cyclobutylpiperazin-1-yl)-7-hexyl-6,7,8,9-tetrahydro-5H-pyrimido[4,5-d]azepine]",≥ 90
3,"O=C(Cc1ccc(Cl)c(Cl)c1)N1CCc2cnc(N3CCN(C4CCC4)CC3)nc2CC1 [Compound 293, 2-(4-cyclobutylpiperazin-1-yl)-7-[(3,4-dichlorophenyl)acetyl]-6,7,8,9-tetrahydro-5H-pyrimido[4,5-d]azepine]",≥ 90
4,"O=C(/C=C/c1c(Cl)cccc1Cl)N1CCc2cnc(N3CCN(C4CCC4)CC3)nc2CC1 [Compound 583, 2-(4-cyclobutylpiperazin-1-yl)-7-[(2E)-3-(2,6-dichlorophenyl)prop-2-enoyl]-6,7,8,9-tetrahydro-5H-pyrimido[4,5-d]azepine]",≥ 90
5,"O=C(C1CC1)N1CCc2cnc(N3CCN(C4CCC4)CC3)nc2CC1 [Compound 215, 2-(4-cyclobutylpiperazin-1-yl)-7-(cyclopropylcarbonyl)-6,7,8,9-tetrahydro-5H-pyrimido[4,5-d]azepine]",≥ 90

# Same assay, conditions: symbol ! in Ki; test compound 4 μM, 1 μM histamine; read-out: percent inhibition of agonist-induced GTP-gammaS binding to H3
row,Structure (SMILES),inhibition at 4 µM [%]
1,"CCCC(C)N1CCc2c(ncnc2N2CCN(C3CCC3)CC2)C1 (stereo not shown) [Compound 118, 4-(4-cyclobutylpiperazin-1-yl)-7-(1-methylbutyl)-5,6,7,8-tetrahydropyrido[3,4-d]pyrimidine]",≥ 90
2,"O=C(CCC1CCCC1)N1CCc2c(ncnc2N2CCN(C3CCC3)CC2)C1 [Compound 49, 4-(4-cyclobutylpiperazin-1-yl)-7-(3-cyclopentylpropanoyl)-5,6,7,8-tetrahydropyrido[3,4-d]pyrimidine]",≥ 90
3,"Clc1ccccc1CN1CCc2nc(N3CCN(C4CCC4)CC3)ncc2C1 [Compound 645, 6-(2-chlorobenzyl)-2-(4-cyclobutylpiperazin-1-yl)-5,6,7,8-tetrahydropyrido[4,3-d]pyrimidine]",≥ 90
4,"CCC(CC)C(C)N1CCc2c(ncnc2N2CCN(C3CCC3)CC2)C1 (stereo not shown) [Compound 123, 4-(4-cyclobutylpiperazin-1-yl)-7-(2-ethyl-1-methylbutyl)-5,6,7,8-tetrahydropyrido[3,4-d]pyrimidine]",≥ 90
5,"c1cc2c(cc1CN1CCc3nc(N4CCN(C5CCC5)CC4)ncc3C1)OCCO2 [Compound 638, 2-(4-cyclobutylpiperazin-1-yl)-6-(2,3-dihydro-1,4-benzodioxin-6-ylmethyl)-5,6,7,8-tetrahydropyrido[4,3-d]pyrimidine]",≥ 90
6,"COc1ccccc1CN1CCc2ncnc(N3CCN(C4CCC4)CC3)c2CC1 [Compound 157, 4-(4-cyclobutylpiperazin-1-yl)-7-(2-methoxybenzyl)-6,7,8,9-tetrahydro-5H-pyrimido[4,5-d]azepine]",≥ 90
7,"Cc1ccc(C)c(C(=O)N2CCc3c(ncnc3N3CCN(C4CCC4)CC3)C2)c1 [Compound 64, 4-(4-cyclobutylpiperazin-1-yl)-7-(2,5-dimethylbenzoyl)-5,6,7,8-tetrahydropyrido[3,4-d]pyrimidine]",≥ 90
